Results on 35 compounds are retold here after patent US9802960B2 (MILLENNIUM PHARMACEUTICALS, INC., priority 2014, dated 2017).

The structures appear in SMILES notation.

For the first test, the target named is Human VPS34 (Homo sapiens (Human), UniProt Q8NEB9). The experiment in a line: Human VPS34 enzyme assay (Adapta TR-FRET). The test is classed as biochemical. The conditions noted are these: compound concentration 1.11 μM. (TR-FRET usually uses a lanthanide donor and a delayed reading to cut background.)
Sequence of Human VPS34 (Q8NEB9 whole entry): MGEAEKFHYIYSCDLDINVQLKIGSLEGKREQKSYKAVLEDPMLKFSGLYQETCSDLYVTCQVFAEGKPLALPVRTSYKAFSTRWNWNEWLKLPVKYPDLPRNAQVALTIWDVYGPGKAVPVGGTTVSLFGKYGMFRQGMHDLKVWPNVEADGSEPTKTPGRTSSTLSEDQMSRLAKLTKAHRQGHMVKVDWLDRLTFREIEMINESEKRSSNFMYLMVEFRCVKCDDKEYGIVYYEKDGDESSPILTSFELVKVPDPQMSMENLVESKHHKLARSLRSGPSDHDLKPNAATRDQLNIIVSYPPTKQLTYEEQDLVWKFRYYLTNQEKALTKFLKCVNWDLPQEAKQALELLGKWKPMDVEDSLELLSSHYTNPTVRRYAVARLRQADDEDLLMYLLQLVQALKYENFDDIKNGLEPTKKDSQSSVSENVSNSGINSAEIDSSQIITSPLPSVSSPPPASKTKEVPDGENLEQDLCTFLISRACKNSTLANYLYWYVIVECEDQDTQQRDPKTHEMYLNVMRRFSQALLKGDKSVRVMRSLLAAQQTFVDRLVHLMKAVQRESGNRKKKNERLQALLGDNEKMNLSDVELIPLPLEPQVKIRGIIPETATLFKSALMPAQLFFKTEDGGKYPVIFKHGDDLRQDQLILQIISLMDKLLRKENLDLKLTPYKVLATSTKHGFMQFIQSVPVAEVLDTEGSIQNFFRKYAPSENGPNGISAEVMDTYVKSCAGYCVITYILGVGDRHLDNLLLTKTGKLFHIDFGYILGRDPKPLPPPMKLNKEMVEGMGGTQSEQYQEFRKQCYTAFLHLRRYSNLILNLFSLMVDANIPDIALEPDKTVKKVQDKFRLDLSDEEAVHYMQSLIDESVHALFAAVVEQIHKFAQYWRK
Take `CC(=O)Nc1cc(-c2cnc(Cl)c(S(=O)(=O)N[C@H](CO)c3ccccc3)c2)ccn1` [Compound I-330, N-(6-chloro-5-{[(1S)-2-hydroxy-1-phenylethyl]sulfamoyl}-3,4′-bipyridin-2′-yl)acetamide]: the “Percent Inhibition” value is on record as over 99%.

The test is the same for the next values; noted with them: compound concentration 1.11 μM; read-out: Percent Inhibition.
As usually defined, the inhibition is the drop in the measured response relative to a control, in per cent. Take `Nc1ncc(-c2ccnc(Nc3ccncn3)c2)cc1C(=O)NC12CC(C1)C2` [Compound I-298, 6-amino-N-(bicyclo[1.1.1]pent-1-yl)-2′-(pyrimidin-4-ylamino)-3,4′-bipyridine-5-carboxamide]: the inhibition at 1.11 µM is 99%.
Take `Cc1nccc(Nc2cc(-c3cnc(Cl)c(NS(=O)(=O)c4ccc(F)cc4F)c3C)ccn2)n1` [Compound I-299, N-{6-chloro-4-methyl-2′-[(2-methylpyrimidin-4-yl)amino]-3,4′-bipyridin-5-yl}-2,4-difluorobenzenesulfonamide]: the inhibition at 1.11 µM is 98%.
For `Cc1c(-c2ccnc(Nc3ncc(C#N)cn3)c2)cnc(Cl)c1NS(=O)(=O)c1ccc(F)cc1F` [Compound I-300, N-{6-chloro-2′-[(5-cyanopyrimidin-2-yl)amino]-4-methyl-3,4′-bipyridin-5-yl}-2,4-difluorobenzene sulfonamide], the inhibition at 1.11 µM stood at 96%.
On the same count and under the same terms, as for `Cc1ncc(-c2ccnc(Nc3ccn(C)n3)c2)cc1NS(=O)(=O)c1ccc(F)cc1F` [Compound I-301, 2,4-difluoro-N-{6-methyl-2′-[(1-methyl-1H-pyrazol-3-yl)amino]-3,4′-bipyridin-5-yl}benzenesulfonamide], the figure is 96%; as for `CCN(CC)C(=O)c1cc(-c2ccnc(Nc3ccnc(C)n3)c2)cnc1C` [Compound I-302, N,N-diethyl-6-methyl-2′-[(2-methylpyrimidin-4-yl)amino]-3,4′-bipyridine-5-carboxamide], 83%; as for `CN(C(=O)c1cc(-c2ccnc(Nc3ccncn3)c2)cnc1N)C12CC(C1)C2` [Compound I-303, 6-amino-N-(bicyclo[1.1.1]pent-1-yl)-N-methyl-2′-(pyrimidin-4-ylamino)-3,4′-bipyridine-5-carboxamide], 95%.
Same read-out and setting: under `Cc1nccc(Nc2cc(-c3cnc(C)c(C(=O)N4CCC4)c3)ccn2)n1` [Compound I-304, Azetidin-1-yl(6-methyl-2′-((2-methylpyrimidin-4-yl)amino)-3,4′-bipyridin-5-yl)methanone] stands 96%; under `Cc1ncc(-c2ccnc(NC(=O)C3CCC3)c2)cc1NS(=O)(=O)c1ccc(F)cc1F` [Compound I-305, N-(5-{[(2,4-difluorophenyl)sulfonyl]amino}-6-methyl-3,4′-bipyridin-2′-yl)cyclobutanecarboxamide], 94%; under `Cc1nccc(Nc2cc(-c3cnc(N(C)C)c(C(=O)N(C)C45CC(C4)C5)c3)ccn2)n1` [Compound I-306, N-(bicyclo[1.1.1]pent-1-yl)-6-(dimethylamino)-N-methyl-2′-((2-methylpyrimidin-4-yl)amino)-3,4′-bipyridine-5-carboxamide], over 99%.
`Cc1ccc(Nc2cc(-c3cnc(C)c(NS(=O)(=O)c4ccc(F)cc4F)c3)ccn2)nn1` [Compound I-307, 2,4-difluoro-N-{6-methyl-2′-[(6-methylpyridazin-3-yl)amino]-3,4′-bipyridin-5-yl}benzenesulfonamide]: the inhibition at 1.11 µM is over 99%.
Still for that read-out and setting: under `Cc1c(-c2ccnc(Nc3ccncn3)c2)cnc(Cl)c1NS(=O)(=O)c1ccccc1` [Compound I-309, N-[6-chloro-4-methyl-2′-(pyrimidin-4-ylamino)-3,4′-bipyridin-5-yl]benzenesulfonamide] stands 99%; under `Cc1ncc(-c2ccnc(Nc3cnccn3)c2)cc1NS(=O)(=O)c1ccc(F)cc1F` [Compound I-310, 2,4-difluoro-N-[6-methyl-2′-(pyrazin-2-ylamino)-3,4′-bipyridin-5-yl]benzenesulfonamide], over 99%.
Take `Cc1ncc(-c2ccnc(NC(=O)C3CC3)c2)cc1NS(=O)(=O)N(C)C` [Compound I-311, N-{5-[(dimethylsulfamoyl)amino]-6-methyl-3,4′-bipyridin-2′-yl}cyclopropanecarboxamide]: the inhibition at 1.11 µM is over 99%.
As to `CC(=O)Nc1cc(-c2cnc(Cl)c(NS(=O)(=O)c3ccccc3)c2C)ccn1` [Compound I-312, N-{6-chloro-4-methyl-5-[(phenylsulfonyl)amino]-3,4′-bipyridin-2′-yl}acetamide], the inhibition at 1.11 µM was over 99%.
With `Cc1ncc(-c2ccnc(NC(=O)N3CCCC3)c2)cc1NS(=O)(=O)c1ccc(F)cc1F` [Compound I-313, N-(5-{[(2,4-difluorophenyl)sulfonyl]amino}-6-methyl-3,4′-bipyridin-2′-yl)pyrrolidine-1-carboxamide], the inhibition at 1.11 µM came to 88%.
For `Cc1nccc(Nc2cc(-c3cnc(Cl)c(N(C)C)c3C)ccn2)n1` [Compound I-314, 6-chloro-N5,N5,4-trimethyl-N2′-(2-methylpyrimidin-4-yl)-3,4′-bipyridine-2′,5-diamine], the inhibition at 1.11 µM came to 91%.
With `Cc1nccc(Nc2cc(-c3cnc(C)c(C(=O)N4CCCC4)c3)ccn2)n1` [Compound I-315, {6-methyl-2′-[(2-methylpyrimidin-4-yl)amino]-3,4′-bipyridin-5-yl}(pyrrolidin-1-yl)methanone], the inhibition at 1.11 µM was determined as 92%.
Still for that read-out and setting: as for `CC(=O)Nc1cc(-c2cncc(S(=O)(=O)NC3C4CC5CC(C4)CC3C5)c2)ccn1` (centres unmarked) [Compound I-318, N-[5-(adamantan-2-ylsulfamoyl)-3,4′-bipyridin-2′-yl]acetamide], the figure is 97%.
Same read-out and setting: as for `CC(=O)Nc1cc(-c2cnc(C)c(N(CCO)S(=O)(=O)c3ccc(F)cc3F)c2)ccn1` [Compound I-319, N-(5-{[(2,4-difluorophenyl)sulfonyl](2-hydroxyethyl)amino}-6-methyl-3,4′-bipyridin-2′-yl)acetamide], the figure is 94%; as for `CC(=O)Nc1cc(-c2cncc(N3CCCCS3(=O)=O)c2)ccn1` [Compound I-320, N-[5-(1,1-dioxido-1,2-thiazinan-2-yl)-3,4′-bipyridin-2′-yl]acetamide], 95%.
The same measure, in the same setting: as for `CC(=O)Nc1cc(-c2cncc(S(=O)(=O)NCc3ccccc3)c2)ccn1` [Compound I-321, N-[5-(benzylsulfamoyl)-3,4′-bipyridin-2′-yl]acetamide], the figure is over 99%; as for `CC(=O)Nc1cc(-c2cnc(C)c(NS(=O)(=O)c3cccc(F)c3Cl)c2)ccn1` [Compound I-322, N-(5-{[(2-chloro-3-fluorophenyl)sulfonyl]amino}-6-methyl-3,4′-bipyridin-2′-yl)acetamide], 96%.
For the compound `CC(=O)Nc1cc(-c2cnc(N)c(N3CCCN(C)S3(=O)=O)c2)ccn1` [Compound I-323, N-[6-amino-5-(6-methyl-1,1-dioxido-1,2,6-thiadiazinan-2-yl)-3,4′-bipyridin-2′-yl]acetamide], the inhibition at 1.11 µM was 73%.
On to `Cc1ncc(-c2ccnc(NC(=O)OCC3(C)COC3)c2)cc1NS(=O)(=O)c1ccc(F)cc1F` [Compound I-324, (3-methyloxetan-3-yl)methyl (5-{[(2,4-difluorophenyl)sulfonyl]amino}-6-methyl-3,4′-bipyridin-2′-yl)carbamate], for which the inhibition at 1.11 µM was over 99%.
Same read-out and setting: as for `CNC1CN(c2cc(-c3ccnc(NC(C)=O)c3)cnc2C)S(=O)(=O)C1` (centres unmarked) [Compound I-325, N-{6-methyl-5-[4-(methylamino)-1,1-dioxidoisothiazolidin-2-yl]-3,4′-bipyridin-2′-yl}acetamide], the figure is over 99%; as for `Cc1ncc(-c2ccnc(NC(=O)OCc3ccn(C)n3)c2)cc1NS(=O)(=O)c1ccc(F)cc1F` [Compound I-326, (1-methyl-1H-pyrazol-3-yl)methyl (5-{[(2,4-difluorophenyl)sulfonyl]amino}-6-methyl-3,4′-bipyridin-2′-yl)carbamate], 96%.
Regarding `COc1ncc(-c2ccnc(NC(C)=O)c2)cc1S(=O)(=O)Nc1cccc(C(F)(F)F)c1` [Compound I-329, N-(6-methoxy-5-{[3-(trifluoromethyl)phenyl]sulfamoyl}-3,4′-bipyridin-2′-yl)acetamide], the inhibition at 1.11 µM was over 99%.
Take `COc1ncc(-c2ccnc(NC(C)=O)c2)cc1N(C)C(=O)c1ccc(F)cc1F` [Compound I-331, N-(2′-acetamido-6-methoxy-3,4′-bipyridin-5-yl)-2,4-difluoro-N-methylbenzamide]: the inhibition at 1.11 µM is 93%.
As for `COC(=O)Nc1cc(-c2cncc(S(=O)(=O)N3CCOCC3)c2)ccn1` [Compound I-332, methyl[5-(morpholin-4-ylsulfonyl)-3,4′-bipyridin-2′-yl]carbamate], the inhibition at 1.11 µM was over 99%.
Same read-out and setting: as for `CC(=O)Nc1cc(-c2cnc(Cl)c(NS(=O)(=O)c3ccc(C(F)(F)F)cc3Cl)c2C)ccn1` [Compound I-333, N-(6-chloro-5-(2-chloro-4-(trifluoromethyl)phenylsulfonamido)-4-methyl-[3,4′-bipyridin]-2′-yl)acetamide], the figure is over 99%; as for `CC(=O)Nc1cc(-c2cnc3c(c2)S(=O)(=O)N[C@@H](c2ccccc2)CO3)ccn1` [Compound I-334, (S)-N-[4-(1,1-dioxido-3-phenyl-3,4-dihydro-2H-pyrido[2,3-b][1,4,5]oxathiazepin-8-yl)pyridin-2-yl]acetamide], 82%.
The same measure, in the same setting: as for `CC(=O)Nc1cc(-c2cnc(Cl)c(NS(=O)(=O)c3ccc(C4CC4)cc3F)c2C)ccn1` [Compound I-335, N-(6-chloro-5-{[(4-cyclopropyl-2-fluorophenyl)sulfonyl]amino}-4-methyl-3,4′-bipyridin-2′-yl)acetamide], the figure is 92%.
Same read-out and setting: as for `Cc1nccc(Nc2cc(-c3cncc(C(C)Oc4ccccc4Cl)c3)ccn2)n1` (centres unmarked) [Compound I-336, 5-[1-(2-chlorophenoxy)ethyl]-N-(2-methylpyrimidin-4-yl)-3,4′-bipyridin-2′-amine], the figure is 96%; as for `CC(=O)Nc1cc(-c2cnc(N)c(N3CCCC3=O)c2)ccn1` [Compound I-337, N-[6-amino-5-(2-oxopyrrolidin-1-yl)-3,4′-bipyridin-2′-yl]acetamide], 52%.
